Reference: patent US9855232B2, “Crystalline forms of bimatoprost acid, methods for preparation, and methods for use thereof” (Allergan, Inc., priority 2012, dated 2018)
Values after ≈ are worked out from the molar mass of the structure shown. Read-outs that look alike come from different tables or passages of the source.

Assays:
Format in all cases: physicochemical
[1] = Thermodynamic equilibrium solubility in anisole
Description: (§1) Anisole was selected as solvent based on good stability and measurable solubility of bimatoprost acid polymorphs in the studied temperature range. […] Another solvent, nitromethane, was selected to detect the solubility of bimatoprost acid at 9 and 22° C. […] At 22° C., both forms converted to oils where no comparison between the two polymorphs could be made.

[2] = Solubility in nitromethane
Description: as §1

[3] = Isothermal competitive co-slurries of polymorph I and II; conditions: 1:1 ratio co-slurry at 5, 20 and 35° C.
Description: The differences in free energy between the polymorphs were measured as a function of temperature in order to determine the transition temperature and relative stability versus temperature.

[4] = Vapor sorption analysis (VSA); conditions: for relative humidity at which the monohydrate (hydrated form) forms: first adsorption
Description: The crystalline monohydrate form (designated polymorph III) was discovered upon vapor sorption analysis (VSA) of both polymorph I and polymorph II. […] The conversion of polymorph I to the monohydrate form was confirmed by XRPD. […] The 2nd adsorption cycle of polymorph II reconfirms formation of the monohydrate again at RH˜75% (FIG. 7). […] The thermal analysis (MDSC) of the monohydrate form indicates a melting endotherm onset (Tonset) at 53.9° C. and a fusion enthalpy (ΔHf) of 72.4 J/g for the monohydrate form (see FIG. 8).

SMILES: O=C(O)CCCC=CCC1C(O)CC(O)C1C=CC(O)CCc1ccccc1 (centres unmarked) [bimatoprost acid, 7-[3,5-Dihydroxy-2-(3-hydroxy-5-phenyl-pent-1-enyl)-cyclopentyl]-hept-5-enoic acid]
- physical state in solubility study ([1]; temperatures above 40° C.): transforms to an oil

SMILES: O=C(O)CCCC=CCC1C(O)CC(O)C1C=CC(O)CCc1ccccc1 (centres unmarked) [polymorph I, 7-[3,5-Dihydroxy-2-(3-hydroxy-5-phenyl-pent-1-enyl)-cyclopentyl]-hept-5-enoic acid]
- solubility ([2]; 9 °C, organic solvent or mixture, thermodynamic from solid, read-out: solubility): 4100 ± 300 µg/mL (≈ 10.6 mM)
- polymorph conversion / relative stability [3]: converts to polymorph II at all three temperatures
- relative humidity at which the monohydrate (hydrated form) forms ([4]; 25° C.): ~75 % RH
- water absorbed ([4]; RH~75%, 25° C.): 4.42 w/w %

SMILES: O=C(O)CCCC=CCC1C(O)CC(O)C1C=CC(O)CCc1ccccc1 (centres unmarked) [polymorph II, 7-[3,5-Dihydroxy-2-(3-hydroxy-5-phenyl-pent-1-enyl)-cyclopentyl]-hept-5-enoic acid]
- solubility ([2]; 9° C.): 3300 ± 200 µg/mL (≈ 8.49 mM)
- polymorph conversion / relative stability [3]: more stable form over the temperature range of 5-35 °C
- thermodynamic equilibrium solubility (comparison of polymorphs) ([1]; 6° C. and 25° C.): lower solubility
- relative humidity at which the monohydrate forms ([4]; 2nd adsorption cycle): ~75%
- relative humidity at which the monohydrate (hydrated form) forms ([4]; 25° C.): above 85 % RH

SMILES: O=C(O)CCCC=CCC1C(O)CC(O)C1C=CC(O)CCc1ccccc1 (centres unmarked) [polymorph III, 7-[3,5-Dihydroxy-2-(3-hydroxy-5-phenyl-pent-1-enyl)-cyclopentyl]-hept-5-enoic acid]
- conversion upon drying ([4]; drying in vapor sorption analyzer at 25° C.): converted beck to the initial polymorph 1
